Converted amounts (≈) assume the structure as drawn. Where a name gives a salt, the structure may show the parent alone. Read-outs that look alike come from different tables or passages of the source.
Columns and labels:
[1] = tested on: Staphylococcus aureus A55; test: MIC, agar serial dilution test; assay type: cell-based
[2] = tested on: Klebsiella pneumoniae A809; test: MIC, agar serial dilution test; assay type: cell-based
[3] = tested on: Staphylococcus aureus L160a (penicillinase-producing); test: MIC, agar serial dilution test; conditions: 24 h
[4] = tested on: Bacillus subtilis ATCC 6633; test: MIC, agar serial dilution test; assay type: cell-based
[5] = tested on: Staphylococcus aureus A321; test: MIC, agar serial dilution test; assay type: cell-based
[6] = tested on: Streptococcus haemolyticus A266; test: MIC, agar serial dilution test; assay type: cell-based
[7] = tested on: Staphylococcus aureus A355 (penicillinase-producing); test: MIC, agar serial dilution test; conditions: 24 h
[8] = tested on: Streptococcus faecalis L 80; test: MIC, agar serial dilution test; assay type: cell-based; conditions: Enterococcus faecalis
[9] = tested on: Brucella melitensis A488; test: microbe, parasite or virus in culture; assay type: cell-based; conditions: A488, 24 h
[10] = tested on: Diplococcus pneumoniae L 54; test: MIC, agar serial dilution test; assay type: cell-based; conditions: Streptococcus pneumoniae
[11] = tested on: Pasteurella multocida A723; test: MIC, agar serial dilution test; assay type: cell-based
[12] = Staphylococcus aureus A55, 24 hours at 37° C, read-out: MIC
[13] = Klebsiella pneumoniae A809, 24 hours at 37° C, read-out: MIC
[14] = ATCC6633, Bacillus subtilis ATCC 6633, 24 hours at 37° C, read-out: MIC
[15] = Staphylococcus aureus A321, 24 hours at 37° C, read-out: MIC
[16] = Streptococcus haemolyticus A266, 24 hours at 37° C, read-out: MIC
[17] = L80, Streptococcus faecalis L 80, 24 hours at 37° C, read-out: MIC
[18] = L54, Diplococcus pneumoniae L 54, 24 hours at 37° C, read-out: MIC
[19] = Pasteurella multocida A723, 24 hours at 37° C, read-out: MIC
[20] = Staphylococcus aureus, A55, 24 h
[21] = Klebsiella pneumoniae, A809, 24 h
[22] = Bacillus subtilis, ATCC6633, 24 h
[23] = Staphylococcus aureus, A321, 24 h
[24] = Pasteurella multocida, A723, 24 h

Compound	MIC [1, 12] [µg/mL]	MIC [2, 13] [µg/mL]	MIC [3] [µg/mL]	MIC [4, 14] [µg/mL]	MIC [5, 15] [µg/mL]	MIC [6, 16] [µg/mL]	MIC [7] [µg/mL]	MIC [8, 17] [µg/mL]	MIC [9] [µg/mL]	MIC [10, 18] [µg/mL]	MIC [11, 19] [µg/mL]	MIC [1, 20] [µg/mL]	MIC [2, 21] [µg/mL]	MIC [4, 22] [µg/mL]	MIC [5, 23] [µg/mL]	MIC ([6]; Streptococcus, A266, 24 h) [µg/mL]	MIC ([8]; L80, 24 h) [µg/mL]	MIC ([10]; L54, 24 h) [µg/mL]	MIC [11, 24] [µg/mL]
CC1(C)SC2C(NC(=O)Cc3cc(C45CC6CC(CC(C6)C4)C5)no3)C(=O)N2C1C(=O)O (centres unmarked) [Example XVI, Sodium salt of 6-{[3-(1)adamantyl-isoxazol-5-yl]acetamido} penicillanic acid]	0.5	> 100	12.5	0.03	0.03	< 0.015	12.5	0.25	3	0.06	6	–	–	–	–	–	–	–	–
Cc1cc(C)c(-c2cc(CC(=O)NC3C(=O)N4C3SC(C)(C)C4C(=O)O)on2)c(C)c1 (centres unmarked) [VI, Sodium salt of 6-{[3-(2,4,6-trimethyl)phenylisoxazol-5-yl]acetamido}penicillanic acid]	0.06	100	0.5	0.03	0.06	0.012	3	0.25	3	0.03	12.5	–	–	–	–	–	–	–	–
O=C(Cc1cccs1)N[C@@H]1C(=O)N2C(C(=O)[O-])=C(C[n+]3ccccc3)CS[C@H]12 [Cephaloridine, Cephaloridin, reference compound]	–	–	0.06 (≈ 0.144 µM)	–	–	–	0.12 (≈ 0.289 µM)	–	3 (≈ 7.22 µM)	–	–	0.06 (≈ 0.144 µM)	3 (≈ 7.22 µM)	0.06 (≈ 0.144 µM)	0.06 (≈ 0.144 µM)	0.015 (≈ 0.0361 µM)	12.5 (≈ 30.1 µM)	0.015 (≈ 0.0361 µM)	1 (≈ 2.41 µM)
CCOc1ccc2ccccc2c1C(=O)N[C@@H]1C(=O)N2[C@@H]1SC(C)(C)[C@@H]2C(=O)O [Nafcilline, Nafcillin, reference compound]	0.12 (≈ 0.29 µM)	12.5 (≈ 30.2 µM)	0.5 (≈ 1.21 µM)	0.5 (≈ 1.21 µM)	0.25 (≈ 0.603 µM)	0.015 (≈ 0.0362 µM)	1 (≈ 2.41 µM)	10 (≈ 24.1 µM)	6 (≈ 14.5 µM)	0.06 (≈ 0.145 µM)	12.5 (≈ 30.2 µM)	–	–	–	–	–	–	–	–
Cc1onc(-c2ccccc2Cl)c1C(=O)N[C@@H]1C(=O)N2[C@@H]1SC(C)(C)[C@@H]2C(=O)O [Cloxazilline, Cloxacillin, reference compound]	0.12 (≈ 0.275 µM)	6 (≈ 13.8 µM)	1 (≈ 2.29 µM)	0.25 (≈ 0.574 µM)	0.06 (≈ 0.138 µM)	0.25 (≈ 0.574 µM)	0.5 (≈ 1.15 µM)	25 (≈ 57.4 µM)	100 (≈ 229 µM)	1.5 (≈ 3.44 µM)	6 (≈ 13.8 µM)	–	–	–	–	–	–	–	–
CC1(C)SC2C(NC(=O)C(N)c3cc(-c4c(Cl)cccc4Cl)no3)C(=O)N2C1C(=O)O (stereo not drawn) [Example XVIII, 6-{α-amino-[3-(2,6-dichloro)phenyl-isoxazol-5-yl]acetamido} penicillanic acid]	0.25 (≈ 0.515 µM)	> 100	12.5 (≈ 25.8 µM)	0.06 (≈ 0.124 µM)	0.12 (≈ 0.247 µM)	< 0.015	12.5 (≈ 25.8 µM)	1 (≈ 2.06 µM)	0.5 (≈ 1.03 µM)	0.12 (≈ 0.247 µM)	6 (≈ 12.4 µM)	–	–	–	–	–	–	–	–
CC(=O)OCC1=C(C(=O)O)N2C(=O)C(NC(=O)Cc3cc(C(C)(C)C)no3)C2SC1 (centres unmarked) [XXXIV, sodium 7-[3-(t-butyl)isoxazole-5-ylacetamido]-3-acetoxymethyl 3-cephem-4-carboxylate]	–	12.5	–	0.75	1.5	–	1.5	12.5	–	0.25	3	–	–	–	–	–	–	–	–
Cc1c(-c2c(Cl)cccc2Cl)noc1CC(=O)NC1C(=O)N2C1SC(C)(C)C2C(=O)O (centres unmarked) [Example X, Sodium salt of 6-{[3-(2,6-dichloro)phenyl-4-methyl-isoxazol-5-yl]acetamido}penicillanic acid]	0.03	> 100	0.5	0.005	0.03	0.006	3	0.25	3	0.02	3	–	–	–	–	–	–	–	–
CC1(C)SC2C(NC(=O)Cc3onc(-c4c(Cl)cccc4Cl)c3C#N)C(=O)N2C1C(=O)O (centres unmarked) [Example XV, Sodium salt of 6-{[3-(2,6-dichloro)phenyl-4-cyano-isoxazol-5-yl]acetamido}penicillanic acid]	0.5	> 100	12.5	0.25	1	0.06	12.5	0.5	6	0.03	12.5	–	–	–	–	–	–	–	–
CC1(C)SC2C(NC(=O)Cc3cc(-c4ccc([N+](=O)[O-])cc4)no3)C(=O)N2C1C(=O)O (centres unmarked) [XIX, Sodium salt of 6-{[3-p-nitrophenyl-isoxazol-5-yl]acetamido}penicillanic acid]	0.03	100	3	< 0.015	0.03	1.5	1	1	0.12	0.03	1	–	–	–	–	–	–	–	–
CC1=C(C(=O)O)N2C(=O)[C@@H](NC(=O)[C@H](N)c3ccccc3)[C@H]2SC1 [Cephalexine, Cephalexin, reference compound]	–	–	12.5 (≈ 36 µM)	–	–	–	12.5 (≈ 36 µM)	–	6 (≈ 17.3 µM)	–	–	3 (≈ 8.64 µM)	3 (≈ 8.64 µM)	0.5 (≈ 1.44 µM)	1.5 (≈ 4.32 µM)	0.25 (≈ 0.72 µM)	100 (≈ 288 µM)	3 (≈ 8.64 µM)	3 (≈ 8.64 µM)
CC1(C)SC2C(NC(=O)C(C(N)=O)c3cc(-c4c(Cl)cccc4Cl)no3)C(=O)N2C1C(=O)O (stereo not drawn) [Example XX, 6-{α-carbamyl-[3-(2,6-dichloro)phenyl-isoxazol-5-yl]acetamido} penicillanic acid]	0.25 (≈ 0.487 µM)	> 100	3 (≈ 5.84 µM)	0.25 (≈ 0.487 µM)	0.25 (≈ 0.487 µM)	0.03 (≈ 0.0584 µM)	3 (≈ 5.84 µM)	0.5 (≈ 0.974 µM)	3 (≈ 5.84 µM)	0.06 (≈ 0.117 µM)	6 (≈ 11.7 µM)	–	–	–	–	–	–	–	–
CC1(C)SC2C(NC(=O)Cc3onc(-c4c(Cl)cccc4Cl)c3C(N)=O)C(=O)N2C1C(=O)O (centres unmarked) [XIV, 6-{[3-(2,6-dichloro)phenyl-4-carbamyl-isoxazol-5-yl]acetamido} penicillanic acid]	12.5 (≈ 24.3 µM)	> 100	> 100	3 (≈ 5.84 µM)	12.5 (≈ 24.3 µM)	1.5 (≈ 2.92 µM)	> 100	50 (≈ 97.4 µM)	50 (≈ 97.4 µM)	6 (≈ 11.7 µM)	50 (≈ 97.4 µM)	–	–	–	–	–	–	–	–
CC1(C)SC2C(NC(=O)C(NC(=O)OCc3ccc([N+](=O)[O-])cc3)c3cc(-c4c(Cl)cccc4Cl)no3)C(=O)N2C1C(=O)O (stereo not drawn) [Example XVII, 6-{-α-p-nitro-benzyloxycarbonylamino-[3-(2,6-dichloro)phenylisoxazol-5-yl]acetamido}penicillanic acid]	1 (≈ 1.5 µM)	> 100	6 (≈ 9.03 µM)	0.5 (≈ 0.752 µM)	1 (≈ 1.5 µM)	0.06 (≈ 0.0903 µM)	12.5 (≈ 18.8 µM)	3 (≈ 4.51 µM)	25 (≈ 37.6 µM)	0.5 (≈ 0.752 µM)	50 (≈ 75.2 µM)	–	–	–	–	–	–	–	–
CC1=C(C(=O)O)N2C(=O)C(NC(=O)Cc3onc(-c4c(C)cc(C)cc4C)c3C)C2SC1 (centres unmarked) [XIII, Sodium salt of 7-{[3-(2,4,6-trimethyl)phenyl-4-phenyl-methyl-isoxazol-5-yl]acetamido}desacetoxycephalosporanic acid]	3	> 100	6	1	1.5	0.6	6	100	> 100	1.5	> 100	–	–	–	–	–	–	–	–

From patent US4010264A, “7-[3-Substituted isoxazol-5-yl]-acetamido-cephalosporanic acids and their anti-bacterial use” (Koninklijke Nederlandsche Gist-en Spiritusfabriek N.V., priority 1970, dated 1977)
